Assay: Plasma stability (UPLC-MS/MS recovery)
Type: in vitro ADME
Conditions: 37 °C, rat plasma diluted 1:1 with PBS pH 7.4, read-out: Compound recovery after incubation with rat plasma
Method: To investigate the potential plasma instability of the carbamoyl-N-arylimine-urea subunit, designed as a new peptide mimetic framework, compound 10e (LASSBio-1736) was selected to investigate its plasma stability,[21,22] previously to the evaluation of its in vivo leishmanicidal effect. Quantitation of 10e (LASSBio-1736), benzocaine standard (positive control; it means a substrate drug for plasma hydrolysis) and ketoconazole (internal standard) was determined by UPLC-MS/MS, after incubation of the compounds at 0, 30, 60, 120 and 240 min with rat plasma, and measuring the peak areas in three different experiments.
For analysis of plasma stability, 5 μL (250 ng mL^−1) of a concentrated solution of 10e (LASSBio-1736) or the positive control benzocaine (stock concentration = 10 000 ng mL^−1 solubilized in DMSO) was added in 195 μL of rat plasma solution (1 : 1) diluted with PBS (pH 7.4). […] The supernatant (400 μL) were placed in 2 mL vials, and analyzed by UPLC-MS/MS. […]
Detection in single reaction monitoring (SRM) mode was used for determination of the LASSBio-1736 (10e) m/z 419.1 → 205.0, benzocaine m/z 166.1 → 137.9 and ketoconazole (IS) 532.1 → 490.3, with a tolerance of mass deviation of 6 ppm, operating in positive ionization mode. The data were acquired using TraceFinder 3.2. software (Thermo Fisher Scientific, Waltham, USA), and analyzed using GraphPad Prism 5 program.

- recovery at 4 h, 250 ng/mL: 38%
SMILES: CCOC(=O)c1ccc(N)cc1 [benzocaine, reference compound]

— PMC9050848, “Carbamoyl-N-aryl-imine-urea: a new framework to obtain a putative leishmanicidal drug-candidate” (RSC Advances, 2020)
